Data as given in the supplement of paper PMC10307832.

Key:
Experiment in all cases: relative viability (nuclei count vs DMSO), 5 days (fraction); higher = more cells survive
LOU-NH91 = tested on: LOU-NH91
How it was run: (§1)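 Relative viability divides the nuclei count in treated wells by that in vehicle wells. Lung cancer cell lines were seeded in 1536-well plates, dosed by pin tool the next day, and fixed and stained after 5 days in one step with final 0.05% Triton X-100, 1% formaldehyde and 1 ug/ml Hoechst. Dosing was a single drug or a fixed anchor-drug dose plus five library-drug doses (not always all listed) in √10 steps, and values are medians of duplicate plates imaged at 4×.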

HCC-827 = tested on: HCC-827
How it was run: as §1

NCI-H2085 = tested on: NCI-H2085
How it was run: as §1

NCI-H1666 = tested on: NCI-H1666
How it was run: as §1

NCI-H2087 = tested on: NCI-H2087
How it was run: as §1

HCC-44 = tested on: HCC-44
How it was run: as §1

201T = tested on: 201T
How it was run: as §1

LU99A = tested on: LU99A
How it was run: as §1

NCI-H2342 = tested on: NCI-H2342
How it was run: as §1

NCI-H647 = tested on: NCI-H647
How it was run: as §1

HOP-62 = tested on: HOP-62
How it was run: as §1

NCI-H1437 = tested on: NCI-H1437
How it was run: as §1

EKVX = tested on: EKVX
How it was run: as §1

H3255 = tested on: H3255
How it was run: as §1

LCLC-97TM1 = tested on: LCLC-97TM1
How it was run: as §1

NCI-H1975 = tested on: NCI-H1975
How it was run: as §1

EPLC-272H = tested on: EPLC-272H
How it was run: as §1

PC-3 [JPC-3] = tested on: PC-3 [JPC-3]
How it was run: as §1

BEN = tested on: BEN
How it was run: as §1

NCI-H1395 = tested on: NCI-H1395
How it was run: as §1

NCI-H358 = tested on: NCI-H358
How it was run: as §1

O=C(O)c1ccc(-c2c[nH]c3ncc(-c4ccccc4)cc23)cc1C1CCCC1 + NC(=O)Nc1cc(-c2cccc(F)c2)sc1C(=O)N[C@H]1CCCNC1 [AZD7762] (partner 0.2 µM)
relative viability (LOU-NH91; first compound 0.04 µM): 0.818 | relative viability (LOU-NH91; first compound 0.1265 µM): 0.866 | relative viability (LOU-NH91; first compound 0.4 µM): 0.787 | relative viability (LOU-NH91; first compound 1.265 µM): 0.769 | relative viability (HCC-827; first compound 0.04 µM): 0.168 | relative viability (HCC-827; first compound 0.1265 µM): 0.191 | relative viability (HCC-827; first compound 0.4 µM): 0.242 | relative viability (HCC-827; first compound 1.265 µM): 0.203 | relative viability (NCI-H2085; first compound 0.04 µM): 0.944 | relative viability (NCI-H2085; first compound 0.1265 µM): 1.09 | relative viability (NCI-H2085; first compound 0.4 µM): 1.03 | relative viability (NCI-H2085; first compound 1.265 µM): 0.871 | relative viability (NCI-H1666; first compound 0.04 µM): 0.798 | relative viability (NCI-H1666; first compound 0.1265 µM): 1 | relative viability (NCI-H1666; first compound 0.4 µM): 0.875 | relative viability (NCI-H1666; first compound 1.265 µM): 0.728 | relative viability (NCI-H2087; first compound 0.04 µM): 1.29 | relative viability (NCI-H2087; first compound 0.1265 µM): 1.44 | relative viability (NCI-H2087; first compound 0.4 µM): 1.23 | relative viability (NCI-H2087; first compound 1.265 µM): 1.11 | relative viability (HCC-44; first compound 0.04 µM): 1.07 | relative viability (HCC-44; first compound 0.1265 µM): 1.03 | relative viability (HCC-44; first compound 0.4 µM): 1.01 | relative viability (HCC-44; first compound 1.265 µM): 0.946 | relative viability (201T; first compound 0.04 µM): 0.599 | relative viability (201T; first compound 0.1265 µM): 0.654 | relative viability (201T; first compound 0.4 µM): 0.664 | relative viability (201T; first compound 1.265 µM): 0.663 | relative viability (LU99A; first compound 0.04 µM): 0.486 | relative viability (LU99A; first compound 0.1265 µM): 0.522 | relative viability (LU99A; first compound 0.4 µM): 0.421 | relative viability (LU99A; first compound 1.265 µM): 0.411 | relative viability (NCI-H2342; first compound 0.04 µM): 0.41 | relative viability (NCI-H2342; first compound 0.1265 µM): 0.467 | relative viability (NCI-H2342; first compound 0.4 µM): 0.535 | relative viability (NCI-H2342; first compound 1.265 µM): 0.459 | relative viability (NCI-H647; first compound 0.04 µM): 0.437 | relative viability (NCI-H647; first compound 0.1265 µM): 0.55 | relative viability (NCI-H647; first compound 0.4 µM): 0.489 | relative viability (NCI-H647; first compound 1.265 µM): 0.408 | relative viability (HOP-62; first compound 0.04 µM): 0.618 | relative viability (HOP-62; first compound 0.1265 µM): 0.795 | relative viability (HOP-62; first compound 0.4 µM): 0.637 | relative viability (HOP-62; first compound 1.265 µM): 0.674 | relative viability (NCI-H1437; first compound 0.04 µM): 1.15 | relative viability (NCI-H1437; first compound 0.1265 µM): 1.21 | relative viability (NCI-H1437; first compound 0.4 µM): 1.15 | relative viability (NCI-H1437; first compound 1.265 µM): 0.934 | relative viability (EKVX; first compound 0.04 µM): 0.679 | relative viability (EKVX; first compound 0.1265 µM): 0.818 | relative viability (EKVX; first compound 0.4 µM): 0.888 | relative viability (EKVX; first compound 1.265 µM): 0.593 | relative viability (H3255; first compound 0.04 µM): 0.79 | relative viability (H3255; first compound 0.1265 µM): 0.991 | relative viability (H3255; first compound 0.4 µM): 0.953 | relative viability (H3255; first compound 1.265 µM): 0.88 | relative viability (LCLC-97TM1; first compound 0.04 µM): 0.278 | relative viability (LCLC-97TM1; first compound 0.1265 µM): 0.368 | relative viability (LCLC-97TM1; first compound 0.4 µM): 0.302 | relative viability (LCLC-97TM1; first compound 1.265 µM): 0.268 | relative viability (NCI-H1975; first compound 0.04 µM): 0.738 | relative viability (NCI-H1975; first compound 0.1265 µM): 0.793 | relative viability (NCI-H1975; first compound 0.4 µM): 0.676 | relative viability (NCI-H1975; first compound 1.265 µM): 0.728 | relative viability (EPLC-272H; first compound 0.04 µM): 0.246 | relative viability (EPLC-272H; first compound 0.1265 µM): 0.32 | relative viability (EPLC-272H; first compound 0.4 µM): 0.21 | relative viability (EPLC-272H; first compound 1.265 µM): 0.246 | relative viability (PC-3 [JPC-3]; first compound 0.04 µM): 0.693 | relative viability (PC-3 [JPC-3]; first compound 0.1265 µM): 0.967 | relative viability (PC-3 [JPC-3]; first compound 0.4 µM): 0.806 | relative viability (PC-3 [JPC-3]; first compound 1.265 µM): 0.766 | relative viability (BEN; first compound 0.04 µM): 0.529 | relative viability (BEN; first compound 0.1265 µM): 0.775 | relative viability (BEN; first compound 0.4 µM): 0.698 | relative viability (BEN; first compound 1.265 µM): 0.771 | relative viability (NCI-H1395; first compound 0.04 µM): 0.416 | relative viability (NCI-H1395; first compound 0.1265 µM): 0.416 | relative viability (NCI-H1395; first compound 0.4 µM): 0.409 | relative viability (NCI-H1395; first compound 1.265 µM): 0.462 | relative viability (NCI-H358; first compound 0.04 µM): 0.494 | relative viability (NCI-H358; first compound 0.1265 µM): 0.536 | relative viability (NCI-H358; first compound 0.4 µM): 0.456 | relative viability (NCI-H358; first compound 1.265 µM): 0.452
